# Experimental data published in patent US4522815A, “Anthracycline glycosides” (priority 1982, dated 1985).
# Like-named read-outs stand apart in the source and are kept apart here.
# Assays:
# Gross leukemia [1] = experiment: Oral activity against i.v. transplanted Gross leukemia (i.v. comparators); format: in vivo, C3H/Me mice; details: for T/C %, median survival time / Toxic deaths: Table 7
# Excerpt: (§1) Results of studies performed in C3H/Me mice carrying i.v. transplanted Gross leukemia and treated i.v. the day after tumor transplantation, are reported in Table 6. […] The compounds Ib and Id were further investigated for oral activity on Gross leukemic transplanted i.v., in comparison with DNR, DX given i.v. and 4-dm DNR given oral route.
# Oral activity of Ib and Id against Gross leukemia
# ^a days after transplantation
# (§2) ^d data of two experiments (range)
# [2] = tested on: P388 leukemia cells sensitive to DX; experiment: Cytotoxicity on doxorubicin-sensitive P388 leukemia cells in vitro, 48 hrs exposure; format: cell-based, mice; details: for IC50: Mus musculus, P388, dose giving 50% reduction of cell number vs untreated controls, 48 hrs, read-out: ID50 P388
# Excerpt: P388 and P388/DX leukemia cells were harvested from mice ascitic fluid and adapted to grow in suspension "in vitro".
# ascitic P388 leukemia = experiment: Antitumor activity against ascitic P388 leukemia in CDF-1 mice, treatment i.p. on day 1; format: in vivo
# Procedure: The primary screening […] was carried out in CDF-1 mice bearing ascitic P388 leukemia (10^6 cells/mouse). Both IIa and IIc were suspended in 10%. Tween 80 and injected intraperitoneally.
# Results of the primary screening "in vivo" carried out in CDF-1 mice bearing P388 ascitic leukemia and treated i.p. the day after tumor transplantation, are reported in Table 5.
# Antitumor activity against ascitic P388 leukekemia.
# (§3) Treatment i.p. on day 1.
# ^a median survival time; % over untreated controls
# ^b long term survivors (≥ 60 days)
# ^c evaluated on the basis of autoptic findings on dead mice
# as §2
# ^e date of three experiments (range)
# Antitumor activity of Ib and Id against ascitic P388
# as §3
# Gross leukemia [3] = experiment: Antitumor activity against i.v. transplanted Gross leukemia in C3H/Me mice, treatment i.v. on day 1; format: in vivo; details: for T/C, median survival time; % over untreated controls / Toxic deaths: Table 6
# Excerpt: as §1
# Antitumor activity against i.v. Gross leukemia.
# Treatment i.v. on day 1.
# [4] = tested on: P388 leukemia cells resistant to DX (P388/DX); experiment: Cytotoxicity on doxorubicin-resistant P388/DX leukemia cells in vitro, 48 hrs exposure; format: cell-based, mice; details: for IC50: Mus musculus, P388/DX, dose giving 50% reduction of cell number vs untreated controls, read-out: ID50 P388/DX; for R: Ratio between ID50 on P388/DX and ID50 on P388: Table 4
# Procedure: Compounds Ib and Id were studied "in vitro" on HeLa and P388 leukemia cells sensitive (P388) and resistant (P388/DX) to DX and […].
# Compound Ib was studied on P388/DX "in vitro".
# P388 and P388/DX leukemia cells were harvested from mice ascitic fluid and adapted to grow in suspension "in vitro". Cytotoxicity tests were carried out exposing the cells to various drug concentrations for 48 hrs; at the end of the exposure period, cells were counted with a coulter cell counter, and the ID50 (dose which gives 50% reduction of the cell number in comparison with untreated controls) was calculated.
# Effect on sensitive and doxorubicin-resistant P388
# ^a Dose giving 50% reduction of cell number in comparison with
# ^c P388 leukemia cells resistant to DX
# ^d Ratio between ID50 on P388/DX and ID50 on P388
# HeLa cells = experiment: Colony inhibition test against HeLa cells in vitro (cloning efficiency), treatment for 24 hrs; format: cell-based; details: for activity at 0.0062 µg/mL: 6.2 ng/ml; for activity at 0.025 µg/mL: 25 ng/ml; for IC50: HeLa colony inhibition; for activity at 0.0125 µg/mL: 12.5 ng/ml
# [5] = Homo sapiens, HeLa, Table 3, 24 hrs, read-out: No of colonies, % of untreated controls
# [6] = Table 2, 4.4 mg/kg i.p. day 1, two experiments
# [7] = Table 2, 6.6 mg/kg i.p. day 1, two (DNR) or three (DX) experiments
# [8] = Table 5, 2.9 mg/kg i.p. day 1, two experiments
# [9] = Table 5, 4.4 mg/kg i.p. day 1, DNR: two experiments
# [10] = Homo sapiens, HeLa, 24 h, read-out: No of colonies, % of untreated controls, Table 1, 24 hrs
# [11] = Homo sapiens, HeLa, 24 h, read-out: No of colonies, % of untreated controls, Table 3, 24 hrs
compound,measurement,setting,value
"CC(=O)[C@]1(O)Cc2c(O)c3c(c(O)c2[C@@H](O[C@H]2C[C@H](O)[C@@H](O)[C@H](C)O2)C1)C(=O)c1ccccc1C3=O [Compound Ib, 4-demethoxy-7-0-(2,6-dideoxy-α-L-arabino-hexopyranosyl)-daunomycinone]","T/C %, median survival time","Gross leukemia [1]; oral +1, 2.9 mg/kg",167%
same,Toxic deaths,"Gross leukemia [1]; oral +1, 2.9 mg/kg",0/10
same,"T/C %, median survival time","Gross leukemia [1]; oral +1, 4.4 mg/kg",208%
same,Toxic deaths,"Gross leukemia [1]; oral +1, 4.4 mg/kg",0/10
same,"T/C %, median survival time","Gross leukemia [1]; oral +1, 6.6 mg/kg",116%
same,Toxic deaths,"Gross leukemia [1]; oral +1, 6.6 mg/kg",4/9
same,antitumor activity given orally at day 1,"Gross leukemia [1]; oral day 1, Gross leukemia, Id at the Mx TD vs DX i.v.","good antitumor activity when given orally at day 1, comparable to that of 4-dm DNR"
same,IC50,[2],0.0012 µg/mL
same,cytotoxicity on P388 leukemia cells,[2]; vs DNR,about as cytotoxic as DNR
same,"LTS, long term survivors (≥ 60 days)","ascitic P388 leukemia; Table 5, 1.25 mg/kg i.p. day 1",0/8
same,"T/C, median survival time; % over untreated controls","ascitic P388 leukemia; Table 5, 1.25 mg/kg i.p. day 1",140%
same,Toxic deaths (autoptic findings on dead mice),"ascitic P388 leukemia; Table 5, 1.25 mg/kg i.p. day 1",0/8
same,"LTS, long term survivors (≥ 60 days)","ascitic P388 leukemia; Table 5, 2.5 mg/kg i.p. day 1",0/9
same,"T/C, median survival time; % over untreated controls","ascitic P388 leukemia; Table 5, 2.5 mg/kg i.p. day 1",163%
same,Toxic deaths (autoptic findings on dead mice),"ascitic P388 leukemia; Table 5, 2.5 mg/kg i.p. day 1",3/9
same,"LTS, long term survivors (≥ 60 days)","ascitic P388 leukemia; Table 5, 5 mg/kg i.p. day 1",0/10
same,"T/C, median survival time; % over untreated controls","ascitic P388 leukemia; Table 5, 5 mg/kg i.p. day 1",63%
same,Toxic deaths (autoptic findings on dead mice),"ascitic P388 leukemia; Table 5, 5 mg/kg i.p. day 1",10/10
same,times less potent than 4-dm DNR,"ascitic P388 leukemia; ascitic P388, i.p. day 1",about 1.5 times
same,times more potent than DNR,"ascitic P388 leukemia; ascitic P388, i.p. day 1",2 times
same,"antileukemia activity, comparison at the Mx TD",ascitic P388 leukemia; vs DNR and 4-dm DNR,less active than DNR and 4-dm DNR
same,"antitumor activity, comparison of the Mx TD","Gross leukemia [3]; Gross leukemia, i.v. day 1",more active than DNR
same,toxicity and potency vs parent compounds,"Gross leukemia [3]; Gross leukemia, i.v. day 1",more toxic and more potent than the parent compounds
same,"T/C, median survival time; % over untreated controls",Gross leukemia [3]; 2.9 mg/kg i.v. day 1,214%
same,Toxic deaths,Gross leukemia [3]; 2.9 mg/kg i.v. day 1,0/7
same,"T/C, median survival time; % over untreated controls",Gross leukemia [3]; 4.4 mg/kg i.v. day 1,100%
same,Toxic deaths,Gross leukemia [3]; 4.4 mg/kg i.v. day 1,7/8
same,activity on P388/DX leukemia cells,[4]; 48 hrs,very active
same,IC50,[4]; 48 hrs,0.03 µg/mL
same,R: Ratio between ID50 on P388/DX and ID50 on P388,[4]; 2880 min,25
same,times less cytotoxic than 4-dm DNR,"HeLa cells; HeLa cells cloning efficiency, vs 4-dm DNR",6 times
same,times less cytotoxic than DNR,"HeLa cells; HeLa cells cloning efficiency, vs DNR",3 times
same,activity at 0.0015 µg/mL,"HeLa cells; Homo sapiens, HeLa, Table 3, 1.5 ng/ml, 24 hrs, read-out: No of colonies, % of untreated controls",107%
same,activity at 0.0062 µg/mL,HeLa cells; [5],87%
same,activity at 0.025 µg/mL,HeLa cells; [5],67%
same,activity at 0.1 µg/mL,"HeLa cells; Homo sapiens, HeLa, Table 3, 100 ng/ml, 24 hrs, read-out: No of colonies, % of untreated controls",0%
same,IC50,"HeLa cells; Homo sapiens, Table 3, 24 hrs, read-out: ID50 (the source's name)",~0.035 µg/mL
"COc1cccc2c1C(=O)c1c(O)c3c(c(O)c1C2=O)C[C@@](O)(C(C)=O)C[C@@H]3O[C@H]1C[C@H](N)[C@H](O)[C@H](C)O1 [DNR, daunorubicin, reference compound]","T/C %, median survival time","Gross leukemia [1]; i.v. +1, 15 mg/kg",200%
same,Toxic deaths,"Gross leukemia [1]; i.v. +1, 15 mg/kg",0/10
same,"T/C %, median survival time","Gross leukemia [1]; i.v. +1, 22.5 mg/kg",125%
same,Toxic deaths,"Gross leukemia [1]; i.v. +1, 22.5 mg/kg",6/10
same,IC50,[2],0.0017 µg/mL
same,"LTS, long term survivors (≥ 60 days)","ascitic P388 leukemia; Table 2, 2.9 mg/kg i.p. day 1",0/10
same,"T/C, median survival time; % over untreated controls","ascitic P388 leukemia; Table 2, 2.9 mg/kg i.p. day 1",160%
same,Toxic deaths (autoptic findings on dead mice),"ascitic P388 leukemia; Table 2, 2.9 mg/kg i.p. day 1",0/10
same,"T/C, median survival time; % over untreated controls","ascitic P388 leukemia; Table 2, 4.4 mg/kg i.p. day 1, data of two experiments (range)",165-170%
same,"LTS, long term survivors (≥ 60 days)",ascitic P388 leukemia; [6],0/10
same,Toxic deaths (autoptic findings on dead mice),ascitic P388 leukemia; [6],0/20
same,"T/C, median survival time; % over untreated controls","ascitic P388 leukemia; Table 2, 6.6 mg/kg i.p. day 1, range of two (DNR) or three (DX) experiments",150-160%
same,"LTS, long term survivors (≥ 60 days)",ascitic P388 leukemia; [7],0/10
same,Toxic deaths (autoptic findings on dead mice),ascitic P388 leukemia; [7],7/20
same,"LTS, long term survivors (≥ 60 days)",ascitic P388 leukemia; [8],0/18
same,Toxic deaths (autoptic findings on dead mice),ascitic P388 leukemia; [8],0/8
same,"T/C, median survival time; % over untreated controls","ascitic P388 leukemia; Table 5, 2.9 mg/kg i.p. day 1, two experiments (range)",159-194%
same,"LTS, long term survivors (≥ 60 days)",ascitic P388 leukemia; [9],0/18
same,Toxic deaths (autoptic findings on dead mice),ascitic P388 leukemia; [9],7/18
same,"T/C, median survival time; % over untreated controls","ascitic P388 leukemia; Table 5, 4.4 mg/kg i.p. day 1, DNR: two experiments (range)",140-184%
same,"T/C, median survival time; % over untreated controls",Gross leukemia [3]; 15 mg/kg i.v. day 1,171%
same,Toxic deaths,Gross leukemia [3]; 15 mg/kg i.v. day 1,0/8
same,"T/C, median survival time; % over untreated controls",Gross leukemia [3]; 22.5 mg/kg i.v. day 1,171%
same,Toxic deaths,Gross leukemia [3]; 22.5 mg/kg i.v. day 1,0/8
same,IC50,[4]; 48 hrs,0.8 µg/mL
same,fold less active on the resistant than on the sensitive line,"[4]; P388/DX vs P388, 2880 min",about 500 fold
same,R: Ratio between ID50 on P388/DX and ID50 on P388,[4]; 2880 min,470
same,IC50,"HeLa cells; Homo sapiens, HeLa, 24 h, read-out: ID50, Table 1, 24 hrs",~0.016 µg/mL
same,IC50,"HeLa cells; Homo sapiens, HeLa, 24 h, read-out: ID50, Table 3, 24 hrs",~0.012 µg/mL
same,activity at 0.0062 µg/mL,HeLa cells; [10],106%
same,activity at 0.0125 µg/mL,HeLa cells; [10],74%
same,activity at 0.025 µg/mL,HeLa cells; [10],12%
same,activity at 0.0062 µg/mL,HeLa cells; [11],83%
same,activity at 0.0125 µg/mL,HeLa cells; [11],51%
same,activity at 0.025 µg/mL,HeLa cells; [11],9%
